The nature of data set [1]: Photostability of Que under 365 nm UV lamp. The following applies: 1.32 mW/cm^2, 150 min. Type of data set: physicochemical. On the procedure:
The photostability of encapsulated Que was assessed using a 365 nm UV lamp with a light intensity of 1.32 mW/cm^2. Aliquots of 5 mL from each sample group were placed 10 cm away from the UV light source and exposed for various durations (0, 10, 30, 60, 90, 120, and 150 min). The retention of Que in each sample was then measured.

The nature of data set [2]: Thermal stability of Que at 85 °C. It is filed as physicochemical. On the procedure:
The thermal stability of Que was evaluated following a previously described method with slight modifications. Briefly, 5 mL aliquots of free Que suspension (control), OG-Que complex solution, OGF-Que complex solution, and UOGF-Que complex solution were placed in a water bath at 85 °C under dark conditions in sealed containers. At predetermined time intervals (0, 10, 30, 60, 90, 120, and 150 min), samples were withdrawn, rapidly cooled to 25 °C, vortexed, and analyzed for Que retention.

The nature of data set [3]: In vitro simulated gastrointestinal digestion, bioaccessibility of Que. The following applies: simulated gastric (2 h) and intestinal (2 h) digestion, 37 °C. It is filed as in vitro ADME. As for the experimental part: The release behavior and bioaccessibility of Que in the complex system were evaluated using an in vitro simulated digestion model with modifications based on previous studies. Briefly, sample solutions loaded with Que (protein concentration: 4 mg/mL) were mixed with equal volumes (10 mL) of simulated gastric fluid containing pepsin. The pH was adjusted to 2.0 using 6 M HCl, and the mixture was incubated at 37 °C with shaking at 100 rpm to simulate gastric digestion for 2 h. Afterward, the pH was adjusted to 7.0 to terminate gastric digestion. For intestinal digestion, 5 mL of the gastric digest was mixed with 5 mL of simulated intestinal fluid containing trypsin and bile salts, followed by incubation at 37 °C for another 2 h. The collected digestion products were centrifuged at 10,000× g for 30 min at 4 °C, and the supernatant was analyzed for Que content to determine the bioaccessibility: (8) Bioaccessibility of Que%=Csupernatant/Cdigesta×100% where Csupernatant denotes the Que content in the supernatant after digestion, and Cdigesta refers to the total Que content in the final digesta after simulated gastrointestinal digestion.

Data set [4] addresses T1, OGF.
T1 construct: amyloid-like fibrils made by acid-heat treatment without ultrasound, partly hydrolysed
Briefly: Intrinsic protein fluorescence quenching by quercetin (0-30 uM, 0.3 mg/mL protein, pH 3.2, inner filter corrected), double-logarithmic Stern-Volmer plot, 298 K. Type of data set: binding. The conditions noted are these: n = 3. On the procedure:
(§1) Intrinsic fluorescence spectroscopy was employed to investigate the interaction between OG and its fibrillar products with Que. The binding capacities of OG, OGF, and UOGF were evaluated at pH 3.2 with various concentrations of Que (0, 2.5, 5, 10, 15, 20, and 30 μM). The mixed samples were incubated at different temperatures of 24.85, 30.85, and 36.85 °C (298, 304, and 310 K) for 30 min. Then the intrinsic fluorescence spectra of each sample (0.3 mg/mL) were recorded using a Cary Eclipse fluorescence spectrophotometer (Agilent Technologies, Santa Clara, CA, USA) following to the previously described protocols. The instrument voltage was set to 650 V, with a slit width and scan rate of 5 nm and 1000 nm/min, respectively. Meanwhile, to correct for the inner filter effect, the following equation was applied as described by Ren et al.. (1) Fc=Fm×10^(Aex+Aem)/2 where Fc and Fm represent the corrected and measured fluorescence intensities, while Aex and Aem denote the absorbance at the excitation and emission wavelengths, respectively.
(§2) The fluorescence quenching mechanism of the complex system was further analyzed by fitting the obtained fluorescence intensity data using the Stern–Volmer equation: (2) F0/F=1+KSVQ=1+Kqτ0Q where F0 and F represent the fluorescence intensities of OG and its fibrils before and after the addition of the polyphenol quencher (Que), respectively; KSV is the Stern–Volmer quenching constant; Kq is the quenching rate constant; [Q] is the concentration of the quencher Que; and τ0 is the average lifetime of the fluorophore in the absence of the quencher.
(§3) Considering the static quenching effect between the OG protein/fibrils and the Que ligand, the binding mechanism was further analyzed using a double logarithmic Stern–Volmer equation: (9) lgF0−F/F=lgKa+nlgQ where the binding constant (Ka) and the number of binding sites (n) are key quantitative parameters reflecting the interaction between the bioactive molecule and the protein; the magnitude of Kₐ indicates the binding affinity between Que and the protein.

Data set [5] concerns the target T2, OG.
T2 construct: native oat globulin isolate, unfibrillated, pH 3.2
The data set is described as above. It is filed as binding. The conditions noted are these: n = 3. On the procedure:
as §1, §2, §3

The target of data set [6] is T3, UOGF.
T3 construct: amyloid-like fibrils, ultrasound pretreatment (pH 2, 9 W/mL, 20 min) then 90 °C for 18 h, partly hydrolysed
The data set is described as above. Type of data set: binding. The conditions noted are these: n = 3. On the procedure:
as §1, §2, §3

Data set [7] concerns the target T1, OGF. Briefly: Intrinsic protein fluorescence quenching by quercetin (0-30 uM, 0.3 mg/mL protein, pH 3.2, inner filter corrected), double-logarithmic Stern-Volmer plot, 304 K. The following applies: n = 3. Type of data set: binding. On the procedure: as §1, §2, §3
The target of data set [8] is T2, OG. The data set is described as above. It is filed as binding. The following applies: n = 3. On the procedure: as §1, §2, §3
Data set [9] deals with T3, UOGF. The data set is described as above. Type of data set: binding. The following applies: n = 3. On the procedure: as §1, §2, §3
Data set [10] concerns the target T1, OGF. Briefly: Intrinsic protein fluorescence quenching by quercetin (0-30 uM, 0.3 mg/mL protein, pH 3.2, inner filter corrected), double-logarithmic Stern-Volmer plot, 310 K. It is filed as binding. The following applies: n = 3. As for the experimental part:
as §1, §2, §3

Data set [11] concerns the target T2, OG. The data set is described as above. The following applies: n = 3. It is filed as binding. As for the experimental part:
as §1, §2, §3

Data set [12] addresses T3, UOGF. The data set is described as above. The conditions noted are these: n = 3. Type of data set: binding. As for the experimental part: as §1, §2, §3

Each structure is given as a SMILES string.

The values that follow come from article PMC12651578, “Ultrasound-Assisted Fibril Formation Enhances Complexation of Oat Globulin with Quercetin: Mechanism, Structure Evolution, Delivery Performance” (Foods, 2025).

For the compound `O=c1c(O)c(-c2ccc(O)c(O)c2)oc2cc(O)cc(O)c12` [Que, Quercetin], the “retention rate of Que after UV exposure” value in [1] stood at 27.78%. Also, the results for the “retention rate of Que after heating” value in data set [2] (30 min) and in [2] (150 min) were 45.13% and 26.48%, respectively. The “bioaccessibility of Que” value in data set [3] is recorded as 8.21%.

On to `O=c1c(O)c(-c2ccc(O)c(O)c2)oc2cc(O)cc(O)c12` [Que, quercetin], for which the “Ka (M^−1), 298 K” value on OGF [4] came out at 17140 M⁻¹; at OG [5], 12850 M⁻¹; on UOGF [6], 20910 M⁻¹. Moreover, the entries for the “Ka (M^−1), 304 K” value at OGF [7], on OG [8] and on UOGF [9] were 26060 M⁻¹, 16330 M⁻¹ and 49870 M⁻¹, respectively. Also, the “Ka (M^−1), 310 K” value on OGF [10] amounted to 79670 M⁻¹; at OG [11], 16470 M⁻¹; at UOGF [12] it was 202600 M⁻¹.
